Source: PMC4254850 (Clinical cancer research : an official journal of the …, 2014)
Entries after “also recorded” stand apart in the source; their conditions may differ.

Assay: Plasma pharmacokinetics, LC/MS/MS, non-compartmental analysis
Assay type: in vivo, human
Settings: for AUC(0-t) / Cmax / half-life: human, plasma, po

For `CS(=O)(=O)N1CCc2c(-c3cnc(N)nc3)nc(N3CCOCC3)nc21` [CH5132799], the Accumulation ratio (2mg (QD), AUC0-24h repeat dose / single dose, mean, n=3) was 0.912(3), the Accumulation ratio (4 mg (QD), AUC0-24h repeat dose / single dose, mean, n=3) was 1.54(3) and the Accumulation ratio (8 mg (QD), AUC0-24h repeat dose / single dose, mean, n=2) was 1.22(2). For the same compound, the Accumulation ratio (16 mg (QD), AUC0-24h repeat dose / single dose, n=1) was 0.972(1), the Accumulation ratio (32 mg (QD), AUC0-24h repeat dose / single dose, mean, n=2) was 1.57(2) and the Accumulation ratio (48 mg (BID), AUC0-12h repeat dose / single dose, mean, n=2) was 1.10(2). For the same compound, the Accumulation ratio (56 mg (BID), AUC0-12h repeat dose / single dose, mean, n=2) was 1.72(2), the Accumulation ratio (56 mg (QD), AUC0-24h repeat dose / single dose, mean, n=3) was 1.07(3) and the Accumulation ratio (72 mg (BID), AUC0-12h repeat dose / single dose, n=1) was 2.25(1). For the same compound, the Accumulation ratio (96 mg (QD), AUC0-24h repeat dose / single dose, mean, n=3) was 0.640(3), the “AUC at doses above the dose-proportional range” value (doses above 56 mg QD) was “no further increase in AUC; also recorded: no significant increments in AUC” and the AUC(0-t) (2 mg, AUC0-24h, 2mg (QD), repeat dose, mean, n=3) was 48.8 ng·h/mL. The AUC(0-t) (2 mg, AUClast, 2mg (QD), single dose, mean, n=3, AUClast = AUC0-72h) was 53 ng·h/mL, the Cmax (2 mg, 2mg (QD), repeat dose, mean, n=3) was 9.92 ng/mL and the Cmax (2 mg, 2mg (QD), single dose, mean, n=3) was 10 ng/mL. It also gave a half-life (2 mg, t1/2, 2mg (QD), single dose, mean, n=3) of 7.52 h, an AUC(0-t) (4 mg, AUC0-24h, 4 mg (QD), repeat dose, mean, n=3) of 167 ng·h/mL and an AUC(0-t) (4 mg, AUClast, 4 mg (QD), single dose, mean, n=3, AUClast = AUC0-72h) of 112 ng·h/mL. It also gave a Cmax (4 mg, 4 mg (QD), repeat dose, mean, n=3) of 22.5 ng/mL, a Cmax (4 mg, 4 mg (QD), single dose, mean, n=3) of 17.2 ng/mL and a half-life (4 mg, t1/2, 4 mg (QD), single dose, mean, n=3) of 8.3 h. The AUC(0-t) (8 mg, AUC0-24h, 8 mg (QD), repeat dose, mean, n=2) was 159 ng·h/mL, the AUC(0-t) (8 mg, AUClast, 8 mg (QD), single dose, mean, n=3, AUClast = AUC0-72h) was 133 ng·h/mL and the Cmax (8 mg, 8 mg (QD), repeat dose, mean, n=2) was 46.3 ng/mL. It also gave a Cmax (8 mg, 8 mg (QD), single dose, mean, n=3) of 41.1 ng/mL, a half-life (8 mg, t1/2, 8 mg (QD), single dose, mean, n=3) of 23.7 h and an AUC(0-t) (16 mg, AUC0-24h, 16 mg (QD), repeat dose, mean, n=2) of 621 ng·h/mL. The AUC(0-t) (16 mg, AUClast, 16 mg (QD), single dose, n=1, AUClast = AUC0-72h) was 883 ng·h/mL, the Cmax (16 mg, 16 mg (QD), repeat dose, mean, n=3) was 100 ng/mL and the Cmax (16 mg, 16 mg (QD), single dose, n=1) was 113 ng/mL. It also gave a half-life (16 mg, t1/2, 16 mg (QD), single dose, n=1) of 13.7 h, an AUC(0-t) (32 mg, AUC0-24h, 32 mg (QD), repeat dose, mean, n=2) of 1740 ng·h/mL and an AUC(0-t) (32 mg, AUClast, 32 mg (QD), single dose, mean, n=4, AUClast = AUC0-72h) of 859 ng·h/mL. For the same compound, the Cmax (32 mg, 32 mg (QD), repeat dose, mean, n=3) was 345 ng/mL, the Cmax (32 mg, 32 mg (QD), single dose, mean, n=4) was 165 ng/mL and the half-life (32 mg, t1/2, 32 mg (QD), single dose, mean, n=4) was 12.2 h. It also gave a half-life (48 mg) of 10.2 h, an AUC(0-t) (48 mg, AUC0-24h, 48 mg (BID) = MTD, repeat dose (steady state), mean, n=5, calculated based on data from 0 to 12 hours (AUC0-12h)) of 1550 ng·h/mL and an AUC(0-t) (48 mg, AUClast, 48 mg (BID) = MTD, single dose, mean, n=4, AUClast = AUC0-72h) of 1270 ng·h/mL. It also gave a Cmax (48 mg, 48 mg (BID) = MTD, repeat dose (steady state), mean, n=5) of 175 ng/mL, a Cmax (48 mg, 48 mg (BID) = MTD, single dose, mean, n=5) of 172 ng/mL and an AUC(0-t) (56 mg, AUC0-24h, 56 mg (BID), repeat dose, mean, n=2, calculated based on data from 0 to 12 hours (AUC0-12h)) of 5940 ng·h/mL. It also gave an AUC(0-t) (56 mg, AUC0-24h, 56 mg (QD), repeat dose, mean, n=3) of 748 ng·h/mL, an AUC(0-t) (56 mg, AUClast, 56 mg (BID), single dose, mean, n=5, AUClast = AUC0-72h) of 3030 ng·h/mL and an AUC(0-t) (56 mg, AUClast, 56 mg (QD), single dose, mean, n=3, AUClast = AUC0-72h) of 969 ng·h/mL. It also gave a Cmax (56 mg, 56 mg (BID), repeat dose, mean, n=3) of 331 ng/mL, a Cmax (56 mg, 56 mg (BID), single dose, mean, n=5) of 428 ng/mL and a Cmax (56 mg, 56 mg (QD), repeat dose, mean, n=3) of 184 ng/mL. The Cmax (56 mg, 56 mg (QD), single dose, mean, n=3) was 163 ng/mL, the half-life (56 mg, t1/2, 56 mg (BID), single dose, mean, n=5) was 16.3 h and the half-life (56 mg, t1/2, 56 mg (QD), single dose, mean, n=3) was 14.5 h. It also gave an AUC(0-t) (72 mg, AUC0-24h, 72 mg (BID), repeat dose, n=1, calculated based on data from 0 to 12 hours (AUC0-12h)) of 5580 ng·h/mL, an AUC(0-t) (72 mg, AUClast, 72 mg (BID), single dose, mean, n=3, AUClast = AUC0-72h) of 2480 ng·h/mL and a Cmax (72 mg, 72 mg (BID), repeat dose, n=1) of 631 ng/mL. It also gave a Cmax (72 mg, 72 mg (BID), single dose, mean, n=3) of 265 ng/mL, a half-life (72 mg, t1/2, 72 mg (BID), single dose, mean, n=3) of 18.3 h and an AUC(0-t) (96 mg, AUC0-24h, 96 mg (QD), repeat dose, mean, n=3) of 691 ng·h/mL. For the same compound, the AUC(0-t) (96 mg, AUClast, 96 mg (QD), single dose, mean, n=4, AUClast = AUC0-72h) was 1650 ng·h/mL, the Cmax (96 mg, 96 mg (QD), repeat dose, mean, n=3) was 103 ng/mL and the Cmax (96 mg, 96 mg (QD), single dose, mean, n=4) was 206 ng/mL. For the same compound, the half-life (96 mg, t1/2, 96 mg (QD), single dose, mean, n=3) was 23.2 h and the “Dose range with dose proportionality of AUC” value (oral) was 2 to 56 mg.
